Measurements published in patent publication US20180153830A1, “SELECTIVE INHIBITORS OF UNDIFFERENTIATED CELLS” (Yissum Research Development Company of the Hebrew …, priority 2012, published 2018).
“And” between values parts separate entries of the source, which are not always exact repeats. Equal values may be shown once.

Columns and labels:
human ES cells = test: Global gene expression analysis (microarray); type: cell-based; conditions: 12 hours
Method: Human embryonic stem cells, and early endodermal progenitors derived from human embryonic stem cells, were treated for 12 hours with the compounds PluriSIn #1 (isonicotinic acid N′-phenylhydrazide) or PluriSIn #6 (2-hydroxy-2-(thiophen-2-yl)-2-phenylacetic acid 4-methyl-N′-phenylhydrazide), or with 0.2% DMSO control. Total RNA was extracted using a PerfectPure™ RNA Cultured Cell Kit (5 Prime) according to the manufacturer's protocol, and analyzed using a Human Genome U133A 2.0 microarray platform (Affymetrix); washing and scanning were performed according to the manufacturer's protocol. Original microarray data are accessible at the NCBI Gene Expression Omnibus (GEO) database under the accession number GSE37040.
Arrays were normalized using the MASS algorithm in the Affymetrix Expression Console. Probe sets absent in both control and treatment conditions were filtered out by the MASS Absent/Present call. Probe sets with expression values lower than 50 were raised to this level. Using a 2-fold threshold, a list of differentially expressed genes was comprised for each pair of conditions: embryonic stem cells treated with PluriSin #1 vs. control, ESCs treated with PluriSIn #6 vs. control, and endodermal progenitor cells treated with PluriSIn #1 vs. control. […]

[1] = tested on: phosphorylated eIF2α in hPSCs; test: Phospho-eIF2α immunoblot, ES cells; type: cell-based, human; conditions: 20 μM PluriSIn #1 or 100 nm A939572
Method: (§1) For immunoblotting, 10% polyacrylamide gel was used for protein separation and detection. The gel was transferred to a nitrocellulose membrane and antibody hybridization and chemiluminescence were performed according to standard procedures. The primary antibodies in this analysis were rabbit anti-phosphorylated-eIF2a (1:250, Cell Signaling Technology), rabbit anti caspase-3 (1:1,000, Cell Signaling Technology), mouse anti β-catenin (1:10,000, BD Biosciences) and mouse anti-α-tubulin (1:50,000, Sigma-Aldrich). Horseradish peroxidase-conjugated anti-rabbit and anti-mouse secondary antibodies were obtained from Jackson Immunoresearch Laboratories.
(§2) To further study the significance of UPR, XBP1 mRNA splicing and eIF2α phosphorylation, hallmarks of UPR, were further examined. Human ES cells and ES-derived differentiated cells were treated with PluriSIn #1 for 12 hours, and expression of the spliced isoform sXBP1 was determined by quantitative PCR and by immunoblotting, as described in the Materials and Methods section. Gene expression change conferred by dithiothreitol ([…]) was used as a positive control.

[2] = tested on: spliced isoform sXBP1 in ES-derived differentiated cells; test: sXBP1 quantitative PCR, differentiated cells; type: cell-based, human; conditions: 20 μM PluriSIn #1 or 100 nm A939572
[3] = tested on: phosphorylated eIF2α in differentiated cells; test: Phospho-eIF2α immunoblot, differentiated cells; type: cell-based, human; conditions: 20 μM PluriSIn #1 or 100 nm A939572
Method: as §1, §2

[4] = tested on: mouse embryos (inner cell mass); test: In-vitro embryonic development experiments; type: cell-based; conditions: for proportion of high quality blastocysts: compound alone; for embryos developing into good quality (category A/B) blastocysts: compound alone (20 μM PluriSIn #1 or 100 nm A939572); for embryos developing into good quality blastocysts with oleic acid / proportion of high quality blastocysts with oleic acid: compound with 100 μM oleic acid
Method: Superovulation was induced in female mice (CB6F1/OLAHSD and ICR:HSD(CD-1)), by injection of gonadotropins: intraperitoneal injection of 5 IU PMSG (pregnant mare's serum gonadotropin) at 1:00 P.M. was followed by an intraperitoneal injection of 5 IU hCG (human chorionic gonadotropin) 47 hours later, in accordance with the procedures described by Najy et al. [Manipulating the mouse embryo: a laboratory manual, 3rd Edn., Cold Spring Harbor Laboratory Press (2003)].
Females were mated with stud males immediately after the second injection, and plugging was evident the next morning. Pregnant female mice were sacrificed at approximately 36 hours p.c. (post coitum), and two-cell embryos were collected in accordance with the procedures described by Najy et al. [Manipulating the mouse embryo: a laboratory manual, 3rd Edn., Cold Spring Harbor Laboratory Press (2003)]. The abdominal cavity was opened, and the oviduct was cut and transferred to a Petri dish containing M2 medium at room temperature. The oviduct was flushed with M2 medium, and embryos were picked up using a pipette and washed in M2 medium to rinse off debris. Embryos were then transferred to microdrops of M16 medium. A 35 mm culture dish (Falcon BD) containing drops of 40 μl M16 medium, covered with mineral oil, was prepared the day before, and incubated overnight at a temperature of 37° C. under 5% CO2. Embryos were then transferred to these microdrops following their collection, and incubated at a temperature of 37° C. under 5% CO2. The development of the embryos was examined twice a day using light microscopy imaging. At the morula stage (approximately 3.5 days p.c.), embryos were transferred either to microdrops of 40 μl M16 medium with 20 μM PluriSIn #1 (isonicotinic acid N′-phenylhydrazide) in 0.2% DMSO, or to control microdrops with 0.2% DMSO. Other control embryos were left at the original microdrops to control for possible effects of the transfer itself. At approximately 4 days p.c. and 4.5 days p.c., the embryos were examined using light microscopy imaging, and blastocysts were graded as described by Cortes et al. [Stem Cells and Development 17:255-267 (2008)].
As described in the Materials and Methods section, a series of independent experiments were performed with two strains of mice, in which two-cell embryos were collected from the oviducts of pregnant mice at approximately 1.5 days post coitum, and these embryos were then let to develop in vitro. The embryos reached the morula stage at approximately 3.5 days post coitum, and were then transferred either to drops with 20 μM PluriSIn #1 (17 embryos in total), drops with 20 μM PluriSIn #1 and 100 μM oleic acid (7 embryos in total), or to control drops with 0.2% DMSO (8 embryos in total), while other control embryos were left to develop without transfer at all (10 embryos in total). Using light microscopy imaging, the development of the embryos was followed until they became mature blastocysts (at approximately 4.5 days post coitum, after which all embryos disintegrated in culture). The blastocysts were then classified into three distinct categories: (A) good quality mouse blastocysts with large and distinct ICM; (B) mouse blastocysts with distinct, but smaller, ICM; and (C) bad quality mouse blastocysts with indistinguishable ICM, as described by Cortes et al. [Stem Cells and Development 17:255-267 (2008)].
The above experiments with mouse embryos were then repeated using the SCD1 inhibitor A939572 instead of PluriSIn #1, and compared with the results obtained with PluriSIn #1, in order to confirm that the effects of PluriSIn #1 are associated with inhibition of SCD1 activity.

| SMILES | gene expression changes associated with ER stress and UPR (human ES cells) | levels of phosphorylated eIF2α, ES cells [1] | expression of spliced isoform sXBP1, differentiated cells [2] | levels of phosphorylated eIF2α, differentiated cells [3] | embryos developing into blastocysts with no distinguished ICM (category C) ([4]; 20 μM) | embryos stuck at the morula stage ([4]; 20 μM) | proportion of high quality blastocysts [4] [%] | embryos developing into good quality (category A/B) blastocysts [4] | embryos developing into good quality blastocysts with oleic acid [4] | proportion of high quality blastocysts with oleic acid [4] [%] |
| --- | --- | --- | --- | --- | --- | --- | --- | --- | --- | --- |
| O=C(NNc1ccccc1)c1ccncc1 [PluriSIn #1, isonicotinic acid N′-phenylhydrazide] | considerable gene expression changes | increased levels | did not increase | did not increase levels | 6 of 17 and 6/17 | 4 of 17 and 4/17 | 41 | 7 of 17 and 7/17 | 5 of 7 | 71 |
| Cc1ccc(NNC(=O)C(O)(c2ccccc2)c2cccs2)cc1 (stereo not drawn) [PluriSIn #6, 2-hydroxy-2-(thiophen-2-yl)-2-phenylacetic acid 4-methyl-N′-phenylhydrazide] | considerable gene expression changes | – | – | – | – | – | – | – | – | – |
| CNC(=O)c1cccc(NC(=O)N2CCC(Oc3ccccc3Cl)CC2)c1 [A939572, 4-(2-chlorophenoxy)-N-(3-(methylcarbamoyl)-phenyl)piperidine-1-carboxamide, reference compound] | – | increased levels | did not increase expression | did not increase levels | – | – | 56 | 5 of 9 | 5 of 7 | 71 |
